Measured values taken from patent EP0333005A1, “Light-sensitive dialkoxybenzenediazonium compound, method for its preparation and its use” (priority 1988, dated 1989).

Assay: Solubility in isopropanol/formic acid
Format: physicochemical
Details: Isopropanol/Ameisensäure (9:1), 20 °C
Description: So beträgt die Löslichkeit in der Form des 2,5-Diethoxy-4-thio(4′-methylphenyl)benzoldiazonium-sulfoisophthalats in Isopropanol/Ameisensäure (9:1) bei 20 °C 7,3 g/l, wogegen die entsprechende erfindungsgemäße Verbindung der Formel I sich zu 12,6 g/l bei 20 °C löst. Bei den bekannten Sulfoisophtalaten müssen daher zur besseren Lösung Löslichkeit verleihende Verbindungen zugesetzt werden.

Compound	Löslichkeit (listed as entsprechende erfindungsgemäße Verbindung der Formel I)	Löslichkeit
CCOc1cc(Sc2ccc(C)cc2)c(OCC)cc1[N+]#N [Beispiel 1, 2,5-Diethoxy-4-thio(4′-methylphenyl)benzoldiazonium-sulfosalicylat]	12,6 g/l	
CCOc1cc(Sc2ccc(C)cc2)c(OCC)cc1[N+]#N [2,5-Diethoxy-4-thio(4′-methylphenyl)benzoldiazonium-sulfoisophthalat, reference compound]		7,3 g/l
